From patent US6034134A, “1-Amino-alkylcyclohexane NMDA receptor antagonists” (Merz + Co. GmbH & Co., priority 1998, dated 2000)
Counter-ions that a name gives are not always drawn. Like-named read-outs stand apart in the source and are kept apart here.

Experiments:
[1] = Maximal electroshock (MES)-induced convulsions in mice; type: in vivo; conditions: for ED50: Mus musculus; for MES ED50: 30 min
Description: NMR female mice (18-28 g) housed 5 per cage were used for the maximal electroshock (MES) and motor impairment tests. […] All compounds were dissolved in 0.9% saline.
The MES test was performed together with tests for myorelaxant action (traction reflex) and motor coordination (rotarod). For the traction reflex test mice were placed with their forepaws on a horizontal rod and were required to place all 4 paws on the wire within 10 seconds. To test ataxia (motor coordination) mice were placed on rotarod (5 rpm) and were required to remain on the rod for 1 minute. […] These tests were followed by MES (100 Hz, 0.5 second shock duration, 50 mA shock intensity, 0.9 ms impulse duration, Ugo Basile) applied through corneal electrodes. The presence of tonic convulsions was scored (tonic extension of hind paws with minimum angle to the body of 90°). The aim was to obtain ED50 s for all parameters scored (anticonvulsive activity and motor side effects) with use of the Litchfield Wilcoxon test for quantal dose responses. Division of the ED50 for side effects (ataxia or myorelaxation) by the ED50 for antagonism of electroshock convulsions was used as a therapeutic index (TI). […]

[2] = Description: All animals were kept with water and food ad libitum under a 12 hour light-dark cycle (light on at 6 a.m.) and at a controlled temperature (20±0.5° C.). All e experiments were performed between 10 a.m. and 5 p.m. Tested agents were injected 30 min. i.p. before the induction of convulsions if not stated otherwise (see below). All compounds were dissolved in 0.9% saline.
[3] = Rotarod test (motor coordination, ataxia) in mice, therapeutic index versus MES; type: in vivo; conditions: ED50 for rotarod failure divided by ED50 for MES; for selectivity ratio at 0.5 h: mouse, in vivo, ip, read-out: TI Rot.
Description: All compounds were dissolved in 0.9% saline.
The MES test was performed together with tests for myorelaxant action (traction reflex) and motor coordination (rotarod). For the traction reflex test mice were placed with their forepaws on a horizontal rod and were required to place all 4 paws on the wire within 10 seconds. To test ataxia (motor coordination) mice were placed on rotarod (5 rpm) and were required to remain on the rod for 1 minute. […] These tests were followed by MES (100 Hz, 0.5 second shock duration, 50 mA shock intensity, 0.9 ms impulse duration, Ugo Basile) applied through corneal electrodes. The presence of tonic convulsions was scored (tonic extension of hind paws with minimum angle to the body of 90°). The aim was to obtain ED50 s for all parameters scored (anticonvulsive activity and motor side effects) with use of the Litchfield Wilcoxon test for quantal dose responses. Division of the ED50 for side effects (ataxia or myorelaxation) by the ED50 for antagonism of electroshock convulsions was used as a therapeutic index (TI).
(§1) IC50 s in patch clamp, excitotoxicity, and binding studies were calculated according to the four parameter logistic equation using the Grafit computer program (Erithacus Software, England). Ki value for binding studies were then determined according to Cheng and Prusoff. […] Pearson product moment correlation analysis (Sigma Stat, Jandel Scientific) was used to compare in vitro potencies and in vivo anticonvulsant activity.

[4] = Solubility (analytical certificates); type: physicochemical
NMDA receptor = experiment: [3H]-(+)-MK-801 binding to rat cortical membranes; conditions: for Ki: read-out: MK-801 Ki, Table 9, Cheng-Prusoff with Kd for MK-801 of […]; for IC50: read-out: [3H] MK-801 IC50, Table 7, footnote calls the values Ki
Description: Male Sprague-Dawley rats (200-250 g) were decapitated and their brains were removed rapidly. The cortex was dissected and homogenized in 20 volumes of ice-cold 0.32 M sucrose using a glass-Teflon homogenizer. The homogenate was centrifuged at 1000 ×g for 10 minutes. The pellet was discarded and the supernatant centrifuged at 20,000 ×g for 20 minutes. The resulting pellet was re-suspended in 20 volumes of distilled water and centrifuged for 20 minutes at 8000 ×g. Then the supernatant and the buffy coat were centrifuged three times (48,000 ×g for 20 minutes) in the presence of 50 mM Tris-HCl, pH 8.0. All centrifugation steps were carried out at 4° C. After resuspension in 5 volumes of 50 mM Tris-HCl, pH 8.0 the membrane suspension was frozen rapidly at -80° C. On the day of assay the membranes were thawed and washed four times by resuspension in 50 mM Tris-HCl, pH 8.0 and centrifugation at 48,000 ×g for 20 minutes. The final pellet was suspended in assay buffer. The amount of protein in the final membrane preparation was determined according to the method of Lowry with some modifications. The final protein concentration used for our studies was between 250-500 μg/ml.
Membranes were re-suspended and incubated in 50 mM Tris-HCl, pH 8.0. […] Incubations were terminated using a Millipore filter system. The samples were rinsed three times with 2.5 ml ice cold assay buffer over glass fiber filters obtained from Schleicher & Schuell under a constant vacuum. Filtration was performed as rapidly as possible. Following separation and rinse, the filters were placed into scintillation liquid (5 ml; Ultima Gold) and radio activity retained on the filters was determined with a conventional liquid scintillation counter (Hewlett Packard, Liquid Scintillation Analyser).
as §1, with “Prusoff. Binding values presented are means±SEM of 3-5 determinations (each performed in duplicate).” for “Prusoff.”

NMDA-induced convulsions = type: in vivo, mice; conditions: Mus musculus, ip; read-out: ED50 in the NMDA test
PTZ-induced convulsions = type: in vivo, mice; conditions: Mus musculus, ip; read-out: ED50 in the PTZ test
[5] = human, in vivo; cited from earlier work
[6] = ip, 0.5 h, Table 8, mice, i.p., 95% confidence limits in parentheses, read-out: MES ED50
[7] = ip, 0.5 h, Table 7, mice, i.p., 30 min before, read-out: MES ED50
[8] = Table 8, mice, i.p., 95% confidence limits in parentheses

Row | Structure (SMILES) | ED50 [1, 6] | Min Lethality ([2]; mouse, in vivo, ip) | selectivity ratio at 0.5 h [3] | Solubility [4] | Ki (NMDA receptor) | ED50 [1, 7] | Min Lethality ([2]; i.p., minimal lethal dose) | IC50 (NMDA receptor) | ED50 ([1]; ip, 0.5 h, read-out: MES ED50) | MES ED50 [1, 8] | TI Rot. ([3]; 30 min) | ED50 ([1]; iv, read-out: ED50 (anticonvulsive) following i.v. administration) | ED50 ([1]; po, read-out: ED50 (anticonvulsive) following p.o. administration) | ED50 ([1]; sc, read-out: ED50 (anticonvulsive) following s.c. administration) | ED50 (NMDA-induced convulsions) | ED50 (PTZ-induced convulsions) | side effects in humans [5]
1 | C[C@@H]1C[C@H](C)C[C@](C)(N)C1 [MRZ 2/681, 1,cis-3,cis-5-Trimethylcyclohexylamine hydrochloride hydrate] | 27.9 mg/kg | > 50 mg/kg | 5.8 | soluble in water, chloroform | 19.2 µM | – | – | – | – | – | – | – | – | – | – | – | –
2 | CC1CC(C)CC(C)(N)C1 (stereo not shown) [Mrz 2/616, 1-amino-1,3,5-trimethylcyclohexane] | 24 mg/kg | – | – | soluble in svater, chloroform | 10.4 µM | 24 mg/kg | > 50 mg/kg | 15 µM | – | – | – | – | – | – | – | – | –
3 | CCCC1(N)CC(C)(C)CC(C)(C)C1 [Mrz 2/601, 1-amino-1-propyl-3,3,5,5-tetramethylcyclohexane] | – | – | – | – | 8.09 µM | – | 50 mg/kg | 7.4 µM | 15.6 mg/kg | 15.6 (10.4-23.4) mg/kg | 1.5 | – | – | – | – | – | –
4 | CCC1(C)CCCC(C)(N)C1 (stereo not shown) [Mrz 2/620] | 41.3 mg/kg | > 50 mg/kg | 1.5 | – | 25.5 µM | 41.3 mg/kg | – | 32.2 µM | – | – | – | – | – | – | – | – | –
5 | CCCC1(CCC)CC(C)(C)CC(C)(N)C1 (stereo not shown) [Mrz 2/626] | 41.2 mg/kg | > 50 mg/kg | 1 | – | 16.5 µM | 41.2 mg/kg | – | 11.6 µM | – | – | – | – | – | – | – | – | –
6 | C[C@@H]1C[C@H](C)C[C@@](C)(N)C1 [MRZ 2/680, 1,trans-3,trans-5-Trimethylcyclohexylamine hydrochloride] | 34.5 mg/kg | > 50 mg/kg | 1.1 | soluble in water, chloroform | 30 µM | – | – | – | – | – | – | – | – | – | – | – | –
7 | CC1(C)CC(C)(C)CC(C)(N)C1 [Mrz 2/579, 1-amino-1,3,3,5,5-pentamethylcyclohexane] | 3.6 mg/kg | – | – | – | 1.47 µM | 3.6 mg/kg | 108 mg/kg | 1.9 µM | – | – | – | 2.5 mg/kg | 13.7 mg/kg | 4.6 mg/kg | 3.7 mg/kg | 5.5 mg/kg | –
8 | CC[C@H]1CC(C)(C)C[C@@](C)(N)C1 [MRZ 2/683, (1S, 5S) cis-3-Ethyl-1,5,5-trimethylcyclohexylamine hydrochloride hydrate] | 12.2 mg/kg | > 50 mg/kg | 3.5 | soluble in chloroform, poor soluble in water | 4.44 µM | – | – | – | – | – | – | – | – | – | – | – | –
9 | CC12CC3CC(C)(C1)CC(N)(C3)C2 [Memantine, reference compound] | 6.9 mg/kg | – | 2.5 | – | 2.45 µM | 6.9 mg/kg | > 108 mg/kg | 0.7 µM | – | – | – | – | – | – | – | – | rarely produce side effects at the therapeutic doses
10 | C[C@H]1CC(C)(C)C[C@@](C)(N)C1 (relative stereo) [Mrz 2/643] | 18.6 mg/kg | > 50 mg/kg | 2.4 | – | 4.66 µM | 18.6 mg/kg | – | 3.6 µM | – | – | – | – | – | – | – | – | –
11 | CC[C@H]1CC(C)(C)C[C@](C)(N)C1 [MRZ 2/682, (1R, 5S) trans-3-Ethyl-1,5,5-trimethylcyclohexylamine hydrochloride] | 7.6 mg/kg | > 50 mg/kg | 3.6 | soluble in chloroform, poor soluble in water | 1.99 µM | – | – | – | – | – | – | – | – | – | – | – | –
12 | CC1(C)CCCC(C)(N)C1 (stereo not shown) [Mrz 2/621] | – | – | 1.5 | – | 32.2 µM | – | > 60 mg/kg | 36.7 µM | 36.9 mg/kg | 36.9 (22.6-60.3) mg/kg | – | – | – | – | – | – | –
